Test results published in US8465763B2, “3-hydroxychlormadinone acetate for the topical treatment of androgen-dependent skin diseases” (Richter Gedeon Nyrt., priority 2006, dated 2013).
“Also recorded” adds a separate entry of the source.

How the values were obtained:
[1] = Antiandrogenic efficacy compared with CMA; conditions: no method described
[2] = Permeation through human abdominal skin in a flow-through cell; assay type: in vitro ADME; conditions: for skin penetration compared with CMA (times lower) / skin permeability / skin penetration compared with CMA (in words): relative to CMA; for average dose released by human abdominal skin after 24 hours: mean of 3 independent experiments, 5% suspension in aqueous 0.05% polysorbate 80 solution, dissected skin approx. 300 μm, approx. 19.7 mm^2, 34° C., receptor fluid pH 7.35
From the text: Determination of Permeation of Chlormadinone Acetate (CMA) and 3β-Hydroxychlormadinone Acetate Through Human Abdominal Skin
Fragments of human abdominal skin arising during stomach reduction operations were placed in a Petri dish with dissection solution (Na^+: 144 mmol/l, K^+: 5.9 mmol/l, Ca^2+: 3.7 mmol/l, Cl,^−: 157 mmol/l). The skin fragments were reduced in thickness from the corium side, in several steps, down to a layer thickness of approx. 300 μm, while being kept moist with the dissection solution. Mechanically stable dissected skin was thus obtained, consisting of epidermis with approx. 150-200 μm of cutis. The layer thickness of the dissected skin fragments was determined by measuring with an external screw-type micrometer made by MITUTOYO. The area of the dissected skin fragments used amounted to approx. 19.7 mm^2.
Permeation of CMA respectively 3β-hydroxychlormadinone acetate through human abdominal skin was determined in a flow-through cell, which is illustrated schematically in FIG. 1. A receptor fluid (1) was here pumped past the underside of the dissected skin (2) with a peristaltic pump at a rate of 270 μl per hour. The dissected skin was clamped between the upper part (3) and the lower part (4) of the permeability cell (5). From above, vehicle with 3β-hydroxychlormadinone acetate (5% suspension in aqueous 0.05% polysorbate 80 solution) or chlormadinone acetate (5% suspension in aqueous 0.05% polysorbate 80 solution) was applied in each case to the skin, which then diffused through the dissected skin (2) into the receptor fluid (1). The dissected skin was moistened by a stationary donor fluid (9), which is situated in a reservoir (7). The internal diameter of the receptor fluid feed line (6) was 0.6 mm, and the receptor fluid volume below the skin amounted to approx. 80 μl. The receptor fluid (1) was analysed at fixed intervals by means of a fraction collector (8) and then by HPLC. These experiments allowed a quantitative statement to be made about the amount of substance diffused as a function of time.
An aqueous, isotonic tris buffer (20 mmol/l) with 20% ethanol was used as the receptor fluid and adjusted with NaCl to 310 mosmol (0.9 wt. %). The pH value of the receptor fluid was 7.35. A hole punch was used to punch a piece corresponding to the area of the dissected skin out of a plaster containing the active ingredient to be investigated, said piece being stuck to the dissected skin. […] The experiments were carried out at a test temperature of 34° C. In each case 3 independent series of measurements were made with CMA respectively 3β-hydroxychlormadinone acetate.

| Structure (SMILES) | antiandrogenic efficacy relative to CMA (ratio) [1] [times] | skin penetration compared with CMA (times lower) [2] [times] | skin permeability / skin penetration compared with CMA (in words) [2] | average dose released by human abdominal skin after 24 hours [2] [µg] |
| --- | --- | --- | --- | --- |
| CC(=O)O[C@]1(C(C)=O)CC[C@H]2[C@@H]3C=C(Cl)C4=C[C@H](O)CC[C@]4(C)[C@H]3CC[C@@]21C [3α-hydroxychlormadinone acetate, 17α-acetoxychloropregna-4,6-dien-3α-ol-20-one] | 0.7 | 6 | far lesser degree of skin penetration compared with CMA | – |
| CC(=O)O[C@]1(C(C)=O)CC[C@H]2[C@@H]3C=C(Cl)C4=C[C@@H](O)CC[C@]4(C)[C@H]3CC[C@@]21C [3β-hydroxychlormadinone acetate, 17α-acetoxychloropregna-4,6-dien-3β-ol-20-one] | 0.7 | 6 | far lesser degree of skin penetration compared with CMA; also recorded: far less than that of CMA | 0.7 |
| CC(=O)O[C@]1(C(C)=O)CC[C@H]2[C@@H]3C=C(Cl)C4=CC(=O)CC[C@]4(C)[C@H]3CC[C@@]21C [CMA, chlormadinone acetate] | – | – | – | 4.4 |
